Experimental data: ChEMBL document CHEMBL1201862, “PubChem BioAssay data set” (2004)
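In this assay, cells in 96-well plates receive the compound at five concentrations for 48 hours. Endpoints are linearly interpolated between the surrounding concentrations. Here, GI50 denotes the concentration required for 50% inhibition of growth.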 Activity calls are given as the source filed them. Cut-off read from the data, not from the text of the source: active = GI50 up to about 1.1 µM and inactive = higher.

Assays:
Experiment in all cases: growth of human tumour cells (NCI), 48 h
NCI-H23 = system: NCI-H23
RPMI-8226 = system: RPMI-8226
U-251 = system: U-251
SN12C = system: SN12C
KM12 = system: KM12
786-0 = system: 786-0
UACC-257 = system: UACC-257
OVCAR-3 = system: OVCAR-3
K562 = system: K562
CAKI-1 = system: CAKI-1
HT-29 = system: HT-29
SK-MEL-2 = system: SK-MEL-2
M14 = system: M14
LOX IMVI = system: LOX IMVI
SR = system: SR
SF-539 = system: SF-539

Row | Compound | GI50 (NCI-H23) | GI50 (RPMI-8226) | GI50 (U-251) | GI50 (SN12C) | GI50 (KM12) | GI50 (786-0) | GI50 (UACC-257) | GI50 (OVCAR-3) | GI50 (K562) | GI50 (CAKI-1) | GI50 (HT-29) | GI50 (SK-MEL-2) | GI50 (M14) | GI50 (LOX IMVI) | GI50 (SR) | GI50 (SF-539)
1 | COc1ccc(/C=C2\Cc3ccccc3C2=O)cc1OC | 91.6 µM (inactive) | > 100 µM (inactive) | > 100 µM (inactive) | > 100 µM (inactive) | > 100 µM (inactive) | > 100 µM (inactive) | > 100 µM (inactive) | > 100 µM (inactive) | > 100 µM (inactive) | > 100 µM (inactive) | > 100 µM (inactive) | > 100 µM (inactive) | > 100 µM (inactive) | – | – | –
2 | COc1ccc(-c2cc(O)c3cc4c(cc3n2)OCO4)cc1 | > 100 µM (inactive) | > 100 µM (inactive) | > 100 µM (inactive) | > 100 µM (inactive) | – | 73.1 µM (inactive) | > 100 µM (inactive) | > 100 µM (inactive) | > 100 µM (inactive) | – | > 100 µM (inactive) | > 100 µM (inactive) | > 100 µM (inactive) | > 100 µM (inactive) | > 100 µM (inactive) | > 100 µM (inactive)
3 | Nc1nc(N)c(CCCCc2ccccc2)c(C=O)n1 | 19 µM (inactive) | 13.2 µM (inactive) | 22.9 µM (inactive) | 19.1 µM (inactive) | 15.9 µM (inactive) | 15 µM (inactive) | 13.6 µM (inactive) | 14.3 µM (inactive) | 5.81 µM (inactive) | 27.3 µM (inactive) | 9.62 µM (inactive) | 20 µM (inactive) | 16.4 µM (inactive) | 14.8 µM (inactive) | – | 18.9 µM (inactive)
4 | COC(=O)C(Cc1nc2ccccc2nc1O)/C(=N\NC(C)(C)C)C(=O)Nc1c(C)cc(Br)cc1C (stereo not given) | 25.2 µM (inactive) | 35.2 µM (inactive) | 19.2 µM (inactive) | 42.7 µM (inactive) | 41 µM (inactive) | 17.5 µM (inactive) | 33.9 µM (inactive) | > 10 µM (inactive) | 29.4 µM (inactive) | 24.5 µM (inactive) | 30.5 µM (inactive) | 31 µM (inactive) | 21.8 µM (inactive) | 19.3 µM (inactive) | 20.5 µM (inactive) | 19.9 µM (inactive)
5 | CCC1=CCN(c2cc(C)ccn2)OC1c1ccccc1 (stereo not given) | 25.4 µM (inactive) | 19.1 µM (inactive) | 22.8 µM (inactive) | 34.6 µM (inactive) | 30.9 µM (inactive) | 45.9 µM (inactive) | 33.3 µM (inactive) | 65.6 µM (inactive) | 47.4 µM (inactive) | 66.1 µM (inactive) | 29.3 µM (inactive) | 21.4 µM (inactive) | 31.3 µM (inactive) | 30.9 µM (inactive) | 21.1 µM (inactive) | > 100 µM (inactive)
6 | CC(N)Cc1ccc(F)cc1 (stereo not given) | > 100 µM (inactive) | > 100 µM (inactive) | > 100 µM (inactive) | > 100 µM (inactive) | > 100 µM (inactive) | > 100 µM (inactive) | > 100 µM (inactive) | > 100 µM (inactive) | > 100 µM (inactive) | > 100 µM (inactive) | > 100 µM (inactive) | > 100 µM (inactive) | > 100 µM (inactive) | > 100 µM (inactive) | > 100 µM (inactive) | > 100 µM (inactive)
7 | O=C1NCCS(=O)(=O)N[C@@H](CC2=CC=CCC2)C(=O)N2CCCC12 (stereo not given in full) | > 100 µM (inactive) | > 100 µM (inactive) | > 100 µM (inactive) | > 100 µM (inactive) | > 100 µM (inactive) | > 100 µM (inactive) | > 100 µM (inactive) | > 100 µM (inactive) | > 100 µM (inactive) | – | > 100 µM (inactive) | > 100 µM (inactive) | > 100 µM (inactive) | > 100 µM (inactive) | > 100 µM (inactive) | > 100 µM (inactive)
8 | CC1(C2CCC3(C)C(C2)C3Sc2ccccc2)OCCO1 (stereo not given) | 22.4 µM (inactive) | 13.5 µM (inactive) | 19.8 µM (inactive) | 20.4 µM (inactive) | 25.6 µM (inactive) | 15.1 µM (inactive) | 17.5 µM (inactive) | 14.4 µM (inactive) | 17.1 µM (inactive) | 20.3 µM (inactive) | 17.5 µM (inactive) | 16.8 µM (inactive) | 37 µM (inactive) | 23.7 µM (inactive) | – | 20.8 µM (inactive)
9 | Cc1ccc(C2=Nc3ccccc3NC(=O)C2)cc1 | > 100 µM (inactive) | – | 32.2 µM (inactive) | > 100 µM (inactive) | > 100 µM (inactive) | 77.8 µM (inactive) | > 100 µM (inactive) | > 100 µM (inactive) | > 100 µM (inactive) | > 100 µM (inactive) | > 100 µM (inactive) | > 100 µM (inactive) | > 100 µM (inactive) | 95.1 µM (inactive) | > 100 µM (inactive) | > 100 µM (inactive)
10 | CCNC(=O)OCc1c(COC(=O)NCC)c(-c2ccc(Cl)c(Cl)c2)n2c1CCC2 | 8.05 µM (inactive) | 7.18 µM (inactive) | 10.5 µM (inactive) | – | 25.9 µM (inactive) | 8.63 µM (inactive) | 12.2 µM (inactive) | 17.6 µM (inactive) | 8.61 µM (inactive) | 3.01 µM (inactive) | 18.3 µM (inactive) | 13.1 µM (inactive) | 11.1 µM (inactive) | – | 3.21 µM (inactive) | 11.5 µM (inactive)
11 | N#CC1(Cc2ccccc2)CCCCN1C(=O)c1ccccc1 (stereo not given) | > 100 µM (inactive) | > 100 µM (inactive) | > 100 µM (inactive) | > 100 µM (inactive) | > 100 µM (inactive) | > 100 µM (inactive) | > 100 µM (inactive) | > 100 µM (inactive) | > 100 µM (inactive) | – | > 100 µM (inactive) | 1.42 µM (inactive) | > 100 µM (inactive) | 84.7 µM (inactive) | 44.7 µM (inactive) | > 100 µM (inactive)
12 | CC1OC(n2cc(F)c(=O)[nH]c2=O)C=CC1=O (stereo not given) | 83 µM (inactive) | 21 µM (inactive) | 14.8 µM (inactive) | 16.4 µM (inactive) | 17.7 µM (inactive) | 15.9 µM (inactive) | 17.9 µM (inactive) | 16 µM (inactive) | 31 µM (inactive) | 14.5 µM (inactive) | 23 µM (inactive) | 15.1 µM (inactive) | 17.5 µM (inactive) | 15 µM (inactive) | 21.5 µM (inactive) | 16.4 µM (inactive)
13 | CSC1NC=Nc2c1sc(=S)n2-c1ccccc1 (stereo not given) | > 100 µM (inactive) | > 100 µM (inactive) | > 100 µM (inactive) | > 100 µM (inactive) | > 100 µM (inactive) | > 100 µM (inactive) | > 100 µM (inactive) | 54.1 µM (inactive) | – | > 100 µM (inactive) | > 100 µM (inactive) | > 100 µM (inactive) | > 100 µM (inactive) | > 100 µM (inactive) | > 100 µM (inactive) | > 100 µM (inactive)
14 | CO/N=C/c1cc(OC)c(OC)c(OC)c1 | > 100 µM (inactive) | > 100 µM (inactive) | > 100 µM (inactive) | > 100 µM (inactive) | > 100 µM (inactive) | > 100 µM (inactive) | > 100 µM (inactive) | > 100 µM (inactive) | > 100 µM (inactive) | > 100 µM (inactive) | > 100 µM (inactive) | > 100 µM (inactive) | > 100 µM (inactive) | > 100 µM (inactive) | > 100 µM (inactive) | > 100 µM (inactive)
15 | CCOC(=O)[C@H](Cc1ccccc1)NC(=O)c1nc[nH]c1[N+](=O)[O-] | > 100 µM (inactive) | > 100 µM (inactive) | > 100 µM (inactive) | > 100 µM (inactive) | > 100 µM (inactive) | > 100 µM (inactive) | > 100 µM (inactive) | > 100 µM (inactive) | > 100 µM (inactive) | > 100 µM (inactive) | > 100 µM (inactive) | > 100 µM (inactive) | > 100 µM (inactive) | > 100 µM (inactive) | > 100 µM (inactive) | > 100 µM (inactive)
16 | CCOC(=O)CP(=S)(S)c1ccccc1 (stereo not given) | > 100 µM (inactive) | – | > 100 µM (inactive) | > 100 µM (inactive) | > 100 µM (inactive) | > 100 µM (inactive) | > 100 µM (inactive) | – | > 100 µM (inactive) | > 100 µM (inactive) | > 100 µM (inactive) | > 100 µM (inactive) | – | > 100 µM (inactive) | > 100 µM (inactive) | > 100 µM (inactive)
17 | C=CC1[C@H]2COC(C)(C)O[C@@H]2CC(=O)C1(C)C (stereo not given in full) | > 100 µM (inactive) | – | > 100 µM (inactive) | > 100 µM (inactive) | > 100 µM (inactive) | 72.9 µM (inactive) | > 100 µM (inactive) | – | – | > 100 µM (inactive) | > 100 µM (inactive) | > 100 µM (inactive) | > 100 µM (inactive) | > 100 µM (inactive) | – | > 100 µM (inactive)
18 | CC1(C)CCC[C@@]2(C)C1CC[C@H]1CC(O)C3(C)CCC12C3 (stereo not given in full) | 18.7 µM (inactive) | 25.8 µM (inactive) | 18.2 µM (inactive) | 16.9 µM (inactive) | 17.5 µM (inactive) | 17.5 µM (inactive) | 18.2 µM (inactive) | 16.7 µM (inactive) | 32.1 µM (inactive) | 16.6 µM (inactive) | 18.2 µM (inactive) | – | 17.1 µM (inactive) | 15.4 µM (inactive) | 21.3 µM (inactive) | 18.9 µM (inactive)
19 | C[C@@H]1C[C@H]2[C@@H]3CCC4=CC(=O)C=C[C@]4(C)[C@@]3(F)[C@@H](O)C[C@]2(C)[C@@]1(O)C(=O)CO [DEXAMETHASONE] | > 100 µM (inactive) | – | – | < 0.01 µM (active) | > 100 µM (inactive) | > 100 µM (inactive) | > 100 µM (inactive) | > 100 µM (inactive) | > 100 µM (inactive) | > 100 µM (inactive) | > 100 µM (inactive) | > 100 µM (inactive) | > 100 µM (inactive) | > 100 µM (inactive) | 49.3 µM (inactive) | –
